Numbered stars: 1 amine (or outer) side, 2 acyl side, 3 side chain; on linkers, the order of the positions; unused ones are H or OH. Bridge positions count the residues as written; N and C are the ends. Square brackets hold non-standard residues; d marks the D form. Peptide text beside a SMILES is read from it. * marks the point of attachment. ξ: configuration not given here. X30 = CCOc1cccc(-c2ccc(C[C@H](N[*:1])C(=O)[*:2])cc2)c1; Phe(4-COOH) = N[C@@H](Cc1ccc(C(=O)O)cc1)C(=O)O; Bip = N[C@@H](Cc1ccc(-c2ccccc2)cc1)C(=O)O; Phe(3-OMe) = COc1cccc(C[C@H](N)C(=O)O)c1; Phe(3-Me) = Cc1cccc(C[C@H](N)C(=O)O)c1; 4Pal = N[C@@H](Cc1ccncc1)C(=O)O; Cha = N[C@@H](CC1CCCCC1)C(=O)O; Carboxymethyl = O=C(O)C*; NMeA = CN[C@@H](C)C(=O)O; Dab = NCC[C@H](N)C(=O)O; Dap = NC[C@H](N)C(=O)O; ξC = NC(CS)C(=O)O; Acm = CC(=O)NC*
What follows are molecules tested against T1, PE-labeled human PD-L1-Ig binding to Jurkat cell line over-expressing human PD-1 (Jurkat-PD-1) (Homo sapiens, UniProt Q15116) (assay: Jurkat-PD-1 Cell Binding High-Content Screening Assay (CBA): Method 1). Conditions: Jurkat-hPD-1 cells, PE-labeled PD-L1-Ig 20 nM final; read-out: Jurkat HPDL1 PD1 IC50 (uM) (Method 1).
T1 construct: expressed in transfected cells; host or cells: Jurkat
T1 sequence (Q15116 25-288): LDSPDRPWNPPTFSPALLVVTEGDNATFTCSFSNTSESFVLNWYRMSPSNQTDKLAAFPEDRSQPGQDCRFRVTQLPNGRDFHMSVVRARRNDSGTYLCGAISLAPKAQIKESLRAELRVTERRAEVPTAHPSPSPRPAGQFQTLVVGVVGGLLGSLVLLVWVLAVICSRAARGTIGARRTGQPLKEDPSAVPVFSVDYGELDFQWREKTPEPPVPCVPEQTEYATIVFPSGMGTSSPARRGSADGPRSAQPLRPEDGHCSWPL

| SMILES | IC50 |
| --- | --- |
| CC(=O)NCSC[C@@H]1NC(=O)[C@H](CC(C)C)NC(=O)[C@H](CC(N)=O)NC(=O)[C@@H](CC(C)C)NC(=O)[C@H](C)N(C)C(=O)[C@H](C(C)C)NC(=O)[C@H](Cc2ccc(-c3ccccc3)cc2)NC(=O)[C@H](CSCNC(C)=O)NC(=O)[C@H](Cc2cccc(C)c2)NC(=O)[C@H](CC(=O)O)NC(=O)[C@H](Cc2ccncc2)NC(=O)[C@H](Cc2ccc(OCC(=O)O)cc2)NC(=O)CSCC(C(=O)NCC(N)=O)NC(=O)[C@H](CO)NC1=O (stereo partly drawn) [Compound 1887] ({CH2CO}-Y(Carboxymethyl)[4Pal]D[Phe(3-Me)]C(Acm)[Bip]V[NMeA][dL]NLC(Acm)S[ξC]G-NH2; thioether N-14) | 0.25 µM |
| CCOc1cccc(-c2ccc(C[C@@H]3NC(=O)[C@H](C(C)C)NC(=O)[C@H](Cc4c[nH]c5ccccc45)NC(=O)[C@H](CC(=O)O)NC(=O)[C@H](Cc4ccc(O)cc4)NC(=O)[C@H](CC(N)=O)NC(=O)CSC[C@@H](C(=O)N[C@@H](C)C(N)=O)NC(=O)[C@H]([C@@H](C)O)NC(=O)[C@H](C(C)C)NC(=O)[C@H](CC(C)C)NC(=O)[C@H](CCN)NC(=O)[C@@H](CC(C)C)NC(=O)[C@H](C)N(C)C(=O)[C@H](CCCNC(=N)N)NC3=O)cc2)c1 [Compound 1221] ({CH2CO}-NYDWV[X30]R[NMeA][dL][Dab]LVTCA-NH2; thioether N-14) | 0.22 µM |
| Cc1cccc(C[C@@H]2NC(=O)[C@H](CC(=O)O)NC(=O)[C@H](Cc3ccc(OCC(=O)O)cc3)NC(=O)[C@H](CN)NC(=O)CSC[C@@H](C(N)=O)NC(=O)[C@H](CCC(N)=O)NC(=O)[C@H](C(C)C)NC(=O)[C@H](CC3CCCCC3)NC(=O)[C@H](CCN)NC(=O)[C@@H](CC(C)C)NC(=O)[C@H](C)N(C)C(=O)[C@H](Cc3ccc(OCC(=O)O)cc3)NC(=O)[C@H](Cc3ccc(-c4ccccc4)cc3)NC(=O)[C@H](Cc3ccc(OCC(=O)O)cc3)NC2=O)c1 [Compound 1649] ({CH2CO}-[Dap]Y(Carboxymethyl)D[Phe(3-Me)]Y(Carboxymethyl)[Bip]Y(Carboxymethyl)[NMeA][dL][Dab][Cha]VQC-NH2; thioether N-14) | 0.1 µM |
| CC[C@H](C)[C@@H]1NC(=O)[C@H](Cc2ccc(-c3ccccc3)cc2)NC(=O)[C@H](CC(C)C)NC(=O)[C@H](Cc2c[nH]c3ccccc23)NC(=O)[C@H](CC(=O)O)NC(=O)[C@H](Cc2ccc(O)cc2)NC(=O)[C@H](Cc2ccccc2)NC(=O)CSC[C@@H](C(=O)NCC(N)=O)NC(=O)[C@H](CO)NC(=O)[C@H](C(C)C)NC(=O)[C@H](CC(C)C)NC(=O)[C@H](CCN)NC(=O)[C@@H](CC(C)C)NC(=O)[C@H](C)N(C)C1=O [Compound 1511] ({CH2CO}-FYDWL[Bip]I[NMeA][dL][Dab]LVSCG-NH2; thioether N-14) | 0.01 µM |
| CC(C)C[C@@H]1NC(=O)[C@H](CCN)NC(=O)[C@@H](CC(C)C)NC(=O)[C@H](C)N(C)C(=O)[C@H](C(C)C)NC(=O)[C@H](Cc2ccc(-c3ccccc3)cc2)NC(=O)[C@H](C(C)C)NC(=O)[C@H](Cc2c[nH]c3ccccc23)NC(=O)[C@H](CC(=O)O)NC(=O)[C@H](Cc2ccc(C(=O)O)cc2)NC(=O)[C@H](Cc2ccc(OCC(=O)O)cc2)NC(=O)CSC[C@@H](C(=O)N[C@@H](C)C(N)=O)NC(=O)[C@H]([C@@H](C)O)NC(=O)[C@H](C(C)C)NC1=O [Compound 1570] ({CH2CO}-Y(Carboxymethyl)[Phe(4-COOH)]DWV[Bip]V[NMeA][dL][Dab]LVTCA-NH2; thioether N-14) | 0.01 µM |
| COc1cccc(C[C@@H]2NC(=O)[C@H](Cc3ccccc3)NC(=O)CSC[C@@H](C(=O)NCC(N)=O)NC(=O)[C@H](CO)NC(=O)[C@H](C(C)C)NC(=O)[C@H](CC(C)C)NC(=O)[C@H](CC(N)=O)NC(=O)[C@@H](CC(C)C)NC(=O)[C@H](C)N(C)C(=O)[C@H](C(C)C)NC(=O)[C@H](Cc3ccc(-c4ccccc4)cc3)NC(=O)[C@H](CC(C)C)NC(=O)[C@H](Cc3c[nH]c4ccccc34)NC(=O)[C@H](CC(=O)O)NC2=O)c1 [Compound 1521] ({CH2CO}-F[Phe(3-OMe)]DWL[Bip]V[NMeA][dL]NLVSCG-NH2; thioether N-14) | 0.07 µM |

From US20240409585A1, “MACROCYCLIC IMMUNOMODULATORS” (priority 2021, published 2024)
